Experimental findings from patent US20200247800A1, “SUBSTITUTED BICYCLIC HETEROCYCLIC COMPOUNDS AS NADPH OXIDASE INHIBITORS” (Glenmark Pharmaceuticals S.A., priority 2017, published 2020) are described below.

As usually defined, the inhibition is the relative decrease from the control value, in per cent. In general, IC50 refers to the concentration at which inhibition is half-maximal. A high value points to weaker potency.

The structures appear in SMILES notation. Where a name gives a salt, the structure may show the parent alone. Where only a bound is given, the exact number is not on record here.

The target in the assay is T1, human NOX4 (Homo sapiens, UniProt Q9NPH5).
T1 construct: expressed in transfected cells; membrane fraction used
T1 sequence (Q9NPH5 1-578): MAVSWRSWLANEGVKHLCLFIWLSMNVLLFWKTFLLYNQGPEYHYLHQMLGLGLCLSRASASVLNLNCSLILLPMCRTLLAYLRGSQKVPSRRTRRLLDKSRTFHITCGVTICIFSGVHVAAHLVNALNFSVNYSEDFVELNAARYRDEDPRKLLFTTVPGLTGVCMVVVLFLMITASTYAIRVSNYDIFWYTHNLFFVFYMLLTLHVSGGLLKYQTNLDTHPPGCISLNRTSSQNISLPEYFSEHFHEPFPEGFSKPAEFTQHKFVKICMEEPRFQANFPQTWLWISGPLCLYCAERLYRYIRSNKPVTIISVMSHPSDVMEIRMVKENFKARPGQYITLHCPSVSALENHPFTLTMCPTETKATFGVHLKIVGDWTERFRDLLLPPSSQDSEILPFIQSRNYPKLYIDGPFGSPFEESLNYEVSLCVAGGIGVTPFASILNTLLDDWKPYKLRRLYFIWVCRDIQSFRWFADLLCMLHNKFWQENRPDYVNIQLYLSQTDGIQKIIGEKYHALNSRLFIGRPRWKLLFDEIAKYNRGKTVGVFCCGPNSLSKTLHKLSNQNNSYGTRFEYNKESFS
T1 sequence (P13498 1-195 partner): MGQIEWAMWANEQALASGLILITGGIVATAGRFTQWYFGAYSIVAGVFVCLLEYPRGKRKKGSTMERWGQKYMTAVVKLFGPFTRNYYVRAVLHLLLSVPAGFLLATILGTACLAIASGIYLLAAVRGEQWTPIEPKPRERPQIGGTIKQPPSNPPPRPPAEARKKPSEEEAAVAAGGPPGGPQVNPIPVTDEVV
Description: Cell free membrane based in vitro NOX4 assay: H2O2 production by membranes expressing human NOX4, measured with Amplex Red. The assay is classed as biochemical. The conditions noted are these: for inhibition at 1 µM: 1.0 μM compound, read-out: Percentage inhibition at 1.0 μM; for inhibition at 10 µM: 10.0 μM compound, read-out: Percentage inhibition at 10.0 μM; for IC50: class symbols. The procedure: The inhibition of NOX4 activity was measured as inhibition of formation of reactive oxygen species (ROS) from oxygen in cell free assays. […] A cell free membrane based in vitro assay was developed by preparing membranes from cells stably overexpressing human NOX4. hNOX4/HEK stable cell line was generated in-house for this purpose. Membranes from stably transfected cells overexpressing human NOX4 were prepared by homogenizing the cells in buffer (20 mM HEPES, 1 mM EGTA, 0.5 mM DTT, 0.5% protease inhibitor cocktail, 1 mM PMSF, pH 7.6), followed by centrifugation at 160000 g for 30 min. Membrane fraction (pellet) was resuspended in storage buffer (homogenization buffer with 10% glycerol and 100 mM NaCl) and stored at −80° C. Protein concentration was determined by Bradford reagent. H202 production by membranes expressing human NOX4 was measured using Amplex Red (Invitrogen) by following a slightly modified version of the manufacturer's instruction manual. Briefly, membranes were incubated in assay buffer (25 mM HEPES, 0.12 M NaCl, 3 mM KCl, 1 mM MgCl2, pH 7.4) with Horse Radish Peroxidase (HRP) and Amplex Red. Reaction was started by addition of […] to the membrane mix. Antagonism of NOX4 inhibitors was measured by incubating the membrane with increasing concentrations of the inhibitors for 20 min on a plate shaker prior to addition of NADPH. H2O2 levels were measured for 10 min in a BMG Fluostar microplate reader with excitation and emission wavelengths of 544 nm and 590 nm respectively. Concentration response curves were plotted as a % of maximal response obtained in the absence of the inhibitor. IC50 value was calculated from concentration response curve by nonlinear regression analysis using GraphPad PRISM software.

As for `Cn1nc(C(F)(F)F)c2c(=O)c(O)c(-c3ccc(F)cc3)[nH]c21` [Example 42, 6-(4-Fluorophenyl)-5-hydroxy-1-methyl-3-(trifluoromethyl)-1,7-dihydro-4H-pyrazolo[3,4-b]pyridin-4-one], the inhibition at 1 µM turned out to be 86.8%, the inhibition at 10 µM worked out at 96.5% and the IC50 was 0.1 to 0.15 µM.
For `Cn1nc(C(F)(F)F)c2c(=O)c(O)c(-c3ccc(Cl)cc3)[nH]c21` [Example 43, 6-(4-Chlorophenyl)-5-hydroxy-1-methyl-3-(trifluoromethyl)-1,7-dihydro-4H-pyrazolo[3,4-b]pyridin-4-one], the inhibition at 1 µM came to 90.6%, the inhibition at 10 µM was found to be 97.9% and the IC50 was in the range of 0.1 to 0.15 µM.
For the molecule `Cn1nc(C(F)(F)F)c2c(=O)c(O)c(-c3ccc(F)cc3Cl)[nH]c21` [Example 44, 6-(2-Chloro-4-fluorophenyl)-5-hydroxy-1-methyl-3-(trifluoromethyl)-1,7-dihydro-4H pyrazolo[3,4-b]pyridin-4-one], the inhibition at 1 µM was 84.6%, the inhibition at 10 µM came to 100% and the half-inhibitory concentration (IC50) was above 0.15 µM.
As for `Cn1nc(C(F)(F)F)c2c(=O)c(O)c(-c3c(F)cccc3Cl)[nH]c21` [Example 45, 6-(2-Chloro-6-fluorophenyl)-5-hydroxy-1-methyl-3-(trifluoromethyl)-1,7-dihydro-4H-pyrazolo[3,4-b]pyridin-4-one], the inhibition at 1 µM came to 89.1%, the inhibition at 10 µM stood at 98.6% and the 50% inhibitory concentration (IC50) lay within 0.1 to 0.15 µM.
As to `Cn1nc(C(F)(F)F)c2c(=O)c(O)c(-c3ccncc3Cl)[nH]c21` [Example 46, 6-(3-Chloropyridin-4-yl)-5-hydroxy-1-methyl-3-(trifluoromethyl)-1,7-dihydro-4H-pyrazolo[3,4-b]pyridin-4-one hydrochloride], the inhibition at 1 µM was found to be 73.6%, the inhibition at 10 µM came out at 100% and the IC50 was in the range of 0.1 to 0.15 µM.
The corresponding values for `COc1ccc(-c2[nH]c3c(c(C(F)(F)F)nn3C)c(=O)c2O)c(F)c1` [Example 47, 6-(2-Fluoro-4-methoxyphenyl)-5-hydroxy-1-methyl-3-(trifluoromethyl)-1,7-dihydro-4H-pyrazolo[3,4-b]pyridin-4-one] are 100%, 100% and 0.05 to 0.1 µM.
`COc1ccc(-c2[nH]c3c(c(C(F)(F)F)nn3C)c(=O)c2O)c(Cl)c1` [Example 48, 6-(2-Chloro-4-methoxyphenyl)-5-hydroxy-1-methyl-3-(trifluoromethyl)-1,7-dihydro-4H-pyrazolo[3,4-b]pyridin-4-one]: the inhibition at 1 µM turned out to be 84.2%, the inhibition at 10 µM came to 98.3% and the IC50 was 0.1 to 0.15 µM.
The corresponding values for `COc1ccc(Cl)c(-c2[nH]c3c(c(C(F)(F)F)nn3C)c(=O)c2O)c1` [Example 49, 6-(2-Chloro-5-methoxyphenyl)-5-hydroxy-1-methyl-3-(trifluoromethyl)-1,7-dihydro-4H-pyrazolo[3,4-b]pyridin-4-one] are 100%, 100% and above 0.15 µM.
As to `Cn1nc(C(F)(F)F)c2c(=O)c(O)c(-c3cc(Cl)ccc3Cl)[nH]c21` [Example 50, 6-(2,5-Dichlorophenyl)-5-hydroxy-1-methyl-3-(trifluoromethyl)-1,7-dihydro-4H-pyrazolo[3,4-b]pyridin-4-one], the inhibition at 1 µM was 89.3%, the inhibition at 10 µM came out at 99.5% and the IC50 lay within 0.1 to 0.15 µM.
In the same order, the values of `COc1ccc(-c2[nH]c3c(c(C(F)(F)F)nn3C)c(=O)c2O)c(OC)c1` [Example 51, 6-(2,4-Dimethoxyphenyl)-5-hydroxy-1-methyl-3-(trifluoromethyl)-1,7-dihydro-4H-pyrazolo[3,4-b]pyridin-4-one] are 74.4%, 86.5% and above 0.15 µM.
